In patent US12139520B2 (priority 2020, dated 2024):
Bridge positions count the residues as written; N and C are the ends. Square brackets hold non-standard residues; d marks the D form. Peptide text beside a SMILES is read from it. Hyp = O=C(O)[C@@H]1C[C@@H](O)CN1; Cit = NC(=O)NCCC[C@H](N)C(=O)O

What was measured:
[1] = Physical stability of peptide analogues (Thioflavin T fibrillation); format: physicochemical; details: maximum ThT signal normalized between hAMY maximum and buffer background; 40° C., shaking, four days; pH 7 per table title
Procedure, shortened: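 1 h in 50 mM NaOAc pH 4 / 50 mM NaPi pH 7; + ThT 4 μM final; 40 °C, 700 rpm linear shake 5 min pre-read; ex 450, em 480 nm q10 min × 4 d; LOESS smoothing; max signal normalised to hAMY max vs buffer blank.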

hAM1 receptor = hAM1 receptor (Homo sapiens, UniProt O60895+Q16602); assay: cAMP assay for in vitro receptor activation, hAM1-R; format: cell-based; details: cAMP assay, hAM1 receptor; read-out: hAM1R EC50
Procedure, shortened: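 Stable hAM1 cells (monoclonal) plated 8000/well; buffer DPBS, 0.05% casein, 0.5 mM IBMX; cAMP read-out.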

Chain of hAM1 receptor (Q16602 23-461): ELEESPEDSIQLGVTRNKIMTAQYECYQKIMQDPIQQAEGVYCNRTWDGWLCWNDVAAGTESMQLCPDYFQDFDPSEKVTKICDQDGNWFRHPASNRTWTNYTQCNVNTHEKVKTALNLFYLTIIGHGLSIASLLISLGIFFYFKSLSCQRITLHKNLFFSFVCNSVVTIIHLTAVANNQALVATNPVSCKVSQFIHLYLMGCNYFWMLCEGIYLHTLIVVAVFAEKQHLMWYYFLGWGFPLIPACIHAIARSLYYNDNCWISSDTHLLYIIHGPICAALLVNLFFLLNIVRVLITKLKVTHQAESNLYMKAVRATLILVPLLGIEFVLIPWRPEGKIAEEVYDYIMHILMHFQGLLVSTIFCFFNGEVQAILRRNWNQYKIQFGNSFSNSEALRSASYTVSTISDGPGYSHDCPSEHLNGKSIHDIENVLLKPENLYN
Chain of hAM1 receptor (O60895 43-175 partner): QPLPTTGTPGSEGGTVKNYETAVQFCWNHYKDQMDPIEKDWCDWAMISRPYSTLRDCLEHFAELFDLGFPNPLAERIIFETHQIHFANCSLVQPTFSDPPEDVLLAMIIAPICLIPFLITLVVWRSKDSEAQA

CC[C@H](C)[C@H](NC(=O)[C@H](CCC(N)=O)NC(=O)[C@H](Cc1c[nH]cn1)NC(=O)[C@H](C)NC(=O)[C@H](CC(C)C)NC(=O)[C@H](CCCNC(=N)N)NC(=O)[C@H](CCC(N)=O)NC(=O)[C@@H](NC(=O)[C@@H](NC(=O)[C@@H]1CSSC[C@H](NC(=O)CN)C(=O)N[C@@H](CCCNC(=N)N)C(=O)N[C@@H]([C@@H](C)O)C(=O)NCC(=O)N[C@@H]([C@@H](C)O)C(=O)N1)[C@@H](C)O)C(C)C)C(=O)N[C@@H](Cc1c[nH]cn1)C(=O)N[C@@H](CCC(N)=O)C(=O)N[C@@H](Cc1ccccc1)C(=O)N[C@H](C(=O)N[C@@H](CC(=O)O)C(=O)N[C@@H](CCCCN)C(=O)N[C@@H](CC(=O)O)C(=O)N[C@@H](CCCCN)C(=O)N[C@@H](CC(=O)O)C(=O)N[C@@H](CC(N)=O)C(=O)N[C@H](C(=O)N[C@@H](C)C(=O)N1CCC[C@H]1C(=O)N[C@@H](CCCNC(=N)N)C(=O)N[C@@H](CO)C(=O)N[C@@H](CCCCN)C(=O)N[C@H](C(=O)N[C@@H](CO)C(=O)N1CCC[C@H]1C(=O)N[C@@H](CCC(N)=O)C(=O)N[C@H](C(=O)N1C[C@H](O)C[C@H]1C(N)=O)[C@@H](C)O)[C@@H](C)CC)C(C)C)[C@@H](C)O [compound 228] (H-GCRTGTCTVQRLAHQIHQFTDKDKDNVAPRSKISPQT[Hyp]-NH2; disulfide 2-7; N-terminus assumed)
Max ThT signal (%) [1]: 19.600% | EC50 (hAM1 receptor): > 5 µM

CC[C@H](C)[C@H](NC(=O)[C@H](CCC(N)=O)NC(=O)[C@H](Cc1c[nH]cn1)NC(=O)[C@H](C)NC(=O)[C@H](CC(C)C)NC(=O)[C@H](CCCNC(=N)N)NC(=O)[C@H](CCC(N)=O)NC(=O)[C@@H](NC(=O)[C@@H](NC(=O)[C@@H]1CSSC[C@H](NC(=O)CN)C(=O)N[C@@H](CCCNC(=N)N)C(=O)N[C@@H]([C@@H](C)O)C(=O)NCC(=O)N[C@@H]([C@@H](C)O)C(=O)N1)[C@@H](C)O)C(C)C)C(=O)N[C@@H](Cc1ccc(O)cc1)C(=O)N[C@@H](CCC(N)=O)C(=O)N[C@@H](Cc1ccccc1)C(=O)N[C@H](C(=O)N[C@@H](CC(=O)O)C(=O)N[C@@H](CCCCN)C(=O)N[C@@H](Cc1ccccc1)C(=O)N[C@@H](CCCCN)C(=O)N[C@@H](CC(=O)O)C(=O)N[C@@H](CC(N)=O)C(=O)N[C@H](C(=O)N[C@@H](C)C(=O)N1CCC[C@H]1C(=O)N[C@@H](CCCNC(=N)N)C(=O)N[C@@H](CO)C(=O)N[C@@H](CCCCN)C(=O)N[C@H](C(=O)N[C@@H](CO)C(=O)N1CCC[C@H]1C(=O)N[C@@H](CCC(N)=O)C(=O)N[C@H](C(=O)N[C@@H](Cc1ccc(O)cc1)C(N)=O)[C@@H](C)O)[C@@H](C)CC)C(C)C)[C@@H](C)O [compound 230] (H-GCRTGTCTVQRLAHQIYQFTDKFKDNVAPRSKISPQTY-NH2; disulfide 2-7; N-terminus assumed)
Max ThT signal (%) [1]: 0.600% | EC50 (hAM1 receptor): > 5 µM

CC[C@H](C)[C@H](NC(=O)[C@H](CCC(N)=O)NC(=O)[C@H](Cc1c[nH]cn1)NC(=O)[C@H](C)NC(=O)[C@H](CC(C)C)NC(=O)[C@H](CCCNC(=N)N)NC(=O)[C@H](CCC(N)=O)NC(=O)[C@@H](NC(=O)[C@@H](NC(=O)[C@@H]1CSSC[C@H](NC(=O)CN)C(=O)N[C@@H](CCCNC(=N)N)C(=O)N[C@@H]([C@@H](C)O)C(=O)NCC(=O)N[C@@H]([C@@H](C)O)C(=O)N1)[C@@H](C)O)C(C)C)C(=O)N[C@@H](Cc1ccc(O)cc1)C(=O)N[C@@H](CCC(N)=O)C(=O)N[C@@H](Cc1ccccc1)C(=O)N[C@H](C(=O)N[C@@H](CC(N)=O)C(=O)N[C@@H](CCCCN)C(=O)N[C@@H](CC(=O)O)C(=O)N[C@@H](CCCCN)C(=O)N[C@@H](CC(=O)O)C(=O)N[C@@H](CC(N)=O)C(=O)N[C@H](C(=O)N[C@@H](C)C(=O)N1CCC[C@H]1C(=O)N[C@@H](CCCNC(=N)N)C(=O)N[C@@H](CO)C(=O)N[C@@H](CCCCN)C(=O)N[C@H](C(=O)N[C@@H](CO)C(=O)N1CCC[C@H]1C(=O)N[C@@H](CCC(N)=O)C(=O)N[C@@H](CCC(N)=O)C(=O)N1C[C@H](O)C[C@H]1C(N)=O)[C@@H](C)CC)C(C)C)[C@@H](C)O [compound 232] (H-GCRTGTCTVQRLAHQIYQFTNKDKDNVAPRSKISPQQ[Hyp]-NH2; disulfide 2-7; N-terminus assumed)
Max ThT signal (%) [1]: 1.200% | EC50 (hAM1 receptor): > 5 µM

CC[C@H](C)[C@H](NC(=O)[C@H](CCC(N)=O)NC(=O)[C@H](Cc1c[nH]cn1)NC(=O)[C@H](C)NC(=O)[C@H](CC(C)C)NC(=O)[C@H](CCCNC(=N)N)NC(=O)[C@H](CCC(N)=O)NC(=O)[C@@H](NC(=O)[C@@H](NC(=O)[C@@H]1CSSC[C@H](NC(=O)CN)C(=O)N[C@@H](CCCNC(=N)N)C(=O)N[C@@H](Cc2ccccc2)C(=O)NCC(=O)N[C@@H]([C@@H](C)O)C(=O)N1)[C@@H](C)O)C(C)C)C(=O)N[C@@H](Cc1ccc(O)cc1)C(=O)N[C@@H](CCC(N)=O)C(=O)N[C@@H](Cc1ccccc1)C(=O)N[C@H](C(=O)N[C@@H](CC(=O)O)C(=O)N[C@@H](CCCCN)C(=O)N[C@@H](CC(=O)O)C(=O)N[C@@H](CCCCN)C(=O)N[C@@H](CC(=O)O)C(=O)N[C@@H](CC(N)=O)C(=O)N[C@H](C(=O)N[C@@H](C)C(=O)N1CCC[C@H]1C(=O)N[C@@H](CO)C(=O)N[C@@H](CO)C(=O)N[C@@H](CCCCN)C(=O)N[C@H](C(=O)N[C@@H](CO)C(=O)N1CCC[C@H]1C(=O)N[C@@H](CCC(N)=O)C(=O)N[C@H](C(=O)N1C[C@H](O)C[C@H]1C(N)=O)[C@@H](C)O)[C@@H](C)CC)C(C)C)[C@@H](C)O [compound 240] (H-GCRFGTCTVQRLAHQIYQFTDKDKDNVAPSSKISPQT[Hyp]-NH2; disulfide 2-7; N-terminus assumed)
Max ThT signal (%) [1]: 3.700% | EC50 (hAM1 receptor): > 5 µM

CC[C@H](C)[C@H](NC(=O)[C@H](CCC(N)=O)NC(=O)[C@H](Cc1c[nH]cn1)NC(=O)[C@H](C)NC(=O)[C@H](CC(C)C)NC(=O)[C@H](CCCNC(=N)N)NC(=O)[C@H](CCC(N)=O)NC(=O)[C@@H](NC(=O)[C@@H](NC(=O)[C@@H]1CSSC[C@H](NC(=O)CN)C(=O)N[C@@H](CCCNC(=N)N)C(=O)N[C@@H]([C@@H](C)O)C(=O)NCC(=O)N[C@@H]([C@@H](C)O)C(=O)N1)[C@@H](C)O)C(C)C)C(=O)N[C@@H](Cc1ccc(O)cc1)C(=O)N[C@@H](CCC(N)=O)C(=O)N[C@@H](Cc1ccccc1)C(=O)N[C@H](C(=O)N[C@@H](CC(N)=O)C(=O)N[C@@H](CCCCN)C(=O)N[C@@H](CC(=O)O)C(=O)N[C@@H](CCCCN)C(=O)N[C@@H](CC(=O)O)C(=O)N[C@@H](CC(N)=O)C(=O)N[C@H](C(=O)N[C@@H](C)C(=O)N1CCC[C@H]1C(=O)N[C@@H](CCCNC(=N)N)C(=O)N[C@@H](CO)C(=O)N[C@@H](CCCCN)C(=O)N[C@H](C(=O)N[C@@H](CO)C(=O)N1CCC[C@H]1C(=O)N[C@@H](CCC(N)=O)C(=O)N[C@H](C(=O)N[C@@H](CCCNC(=N)N)C(N)=O)[C@@H](C)O)[C@@H](C)CC)C(C)C)[C@@H](C)O [compound 242] (H-GCRTGTCTVQRLAHQIYQFTNKDKDNVAPRSKISPQTR-NH2; disulfide 2-7; N-terminus assumed)
Max ThT signal (%) [1]: 0.800% | EC50 (hAM1 receptor): > 5 µM

CC[C@H](C)[C@H](NC(=O)[C@H](CCCCN)NC(=O)[C@@H](NC(=O)[C@H](CCCNC(=N)N)NC(=O)[C@@H]1CCCN1C(=O)[C@H](C)NC(=O)[C@@H](NC(=O)[C@H](CC(N)=O)NC(=O)[C@H](CC(=O)O)NC(=O)[C@H](CCCCN)NC(=O)[C@H](CC(=O)O)NC(=O)[C@H](CCCCN)NC(=O)[C@H](CC(=O)O)NC(=O)[C@@H](NC(=O)[C@H](Cc1ccccc1)NC(=O)[C@H](CCC(N)=O)NC(=O)[C@H](Cc1ccc(O)cc1)NC(=O)[C@@H](NC(=O)[C@H](CCC(N)=O)NC(=O)[C@H](Cc1c[nH]cn1)NC(=O)[C@H](C)NC(=O)[C@H](CC(C)C)NC(=O)[C@H](CCCNC(N)=O)NC(=O)[C@H](CCC(N)=O)NC(=O)[C@@H](NC(=O)[C@@H](NC(=O)[C@@H]1CSSC[C@H](NC(=O)CN)C(=O)N[C@@H](CCCNC(=N)N)C(=O)N[C@@H]([C@@H](C)O)C(=O)NCC(=O)N[C@@H]([C@@H](C)O)C(=O)N1)[C@@H](C)O)C(C)C)[C@@H](C)CC)[C@@H](C)O)C(C)C)[C@@H](C)O)C(=O)NCC(=O)N1CCC[C@H]1C(=O)N[C@@H](CC(N)=O)C(=O)NCC(=O)N1C[C@H](O)C[C@H]1C(N)=O [compound 277] (H-GCRTGTCTVQ[Cit]LAHQIYQFTDKDKDNVAPRTKIGPNG[Hyp]-NH2; disulfide 2-7; N-terminus assumed)
Max ThT signal (%) [1]: 21.600% | EC50 (hAM1 receptor): > 5 µM

CC[C@H](C)[C@H](NC(=O)[C@H](CCC(N)=O)NC(=O)[C@H](Cc1c[nH]cn1)NC(=O)[C@H](C)NC(=O)[C@H](CC(C)C)NC(=O)[C@H](CCCNC(N)=O)NC(=O)[C@H](CCC(N)=O)NC(=O)[C@@H](NC(=O)[C@@H](NC(=O)[C@@H]1CSSC[C@H](NC(=O)CN)C(=O)N[C@@H](CCCNC(=N)N)C(=O)N[C@@H](Cc2ccccc2)C(=O)NCC(=O)N[C@@H]([C@@H](C)O)C(=O)N1)[C@@H](C)O)C(C)C)C(=O)N[C@@H](Cc1ccc(O)cc1)C(=O)N[C@@H](CCC(N)=O)C(=O)N[C@@H](Cc1ccccc1)C(=O)N[C@H](C(=O)N[C@@H](CC(=O)O)C(=O)N[C@@H](CCCCN)C(=O)N[C@@H](CC(=O)O)C(=O)N[C@@H](CCCCN)C(=O)N[C@@H](CC(=O)O)C(=O)N[C@@H](CC(N)=O)C(=O)N[C@H](C(=O)N[C@@H](C)C(=O)N1CCC[C@H]1C(=O)N[C@@H](CCCNC(=N)N)C(=O)N[C@H](C(=O)N[C@@H](CCCCN)C(=O)N[C@H](C(=O)N[C@@H](CO)C(=O)N1CCC[C@H]1C(=O)N[C@@H](CCC(N)=O)C(=O)NCC(=O)N1C[C@H](O)C[C@H]1C(N)=O)C(C)C)[C@@H](C)O)C(C)C)[C@@H](C)O [compound 287] (H-GCRFGTCTVQ[Cit]LAHQIYQFTDKDKDNVAPRTKVSPQG[Hyp]-NH2; disulfide 2-7; N-terminus assumed)
Max ThT signal (%) [1]: 10.650% | EC50 (hAM1 receptor): > 5 µM
